Columns and labels:
[1] = Maximum flux through silicone membrane from water (diffusion cell, saturated donor suspension, 32 °C)
Procedure: The measurement of maximum flux through silicone was performed according to a literature procedure at 32 °C, except that the silicone membrane was in contact with the receptor for only 24 h to condition them. The receptor was a 7.1 pH phosphate buffer.
After the membranes were conditioned, the receptor phases were changed and the donor suspensions (first application, 1 mL) were applied; n = 3. The donor cells were sealed by Parafilm. Samples were taken from the receptor every 2–3 h after application. Following sample collection, the receptor phases were changed to ensure sink conditions, and the donor suspensions were either changed or had more solid/oil added to the existing suspension, depending upon the visible extent of depletion. After 4–5 sampling intervals, the donor suspensions were removed with methanol and the receptors were changed. The membranes were leached with methanol in the donor phase for 48–72 h with samples taken and receptor phases changed every 12–24 h to remove any residual phenol in the membrane.
(§1) The flux values of the first and second application were determined by UV absorption.

[2] = set-up: method as in PMID 22602, PMID 16982163; settings: cited from earlier work; for Exp. log JMHAQ: experimental maximum flux through human stratum corneum from water, Table 2; for Log JMHAQ: maximum flux through human stratum corneum from water, log value, Table 1
[3] = set-up: method as in PMID 22602, PMID 16982163; settings: solubility in water, log value; cited from earlier work
[4] = set-up: method as in PMID 22602, PMID 16982163; settings: octanol:water partition coefficient; cited from earlier work
[5] = set-up: method as in PMID 22602, PMID 16982163; settings: solubility in octanol, log value; cited from earlier work
[6] = Flux of standard solute theophylline through silicone from propylene glycol (membrane integrity check, second application); type: in vitro ADME; settings: each membrane after methanol leaching
Procedure: as §1

[7] = set-up: method as in PMID 18588972; settings: donor suspension in propylene glycol; cited from earlier work
[8] = experimental maximum flux through silicone from water, Table 2
[9] = maximum flux through silicone from water, log value, 32 °C, receptor pH 7.1 phosphate buffer, n = 3, Table 1

Question: Which results are given for Cc1cc(O)ccc1Cl [compound 1, 4-chloro-3-methyl]?
Answer: Exp. log JMPAQ ([1]; not told): 1.01 μmole cm^−2 h^−1; Log JMPAQ ([1]; not told, pH 7.1): 1.01 μmole cm^−2 h^−1; Exp. log JMHAQ [2]: 0.29 μmole cm^−2 h^−1; Log JMHAQ [2]: 0.29 μmole cm^−2 h^−1; Log SAQ [3]: 1.55 μmole cm^−3; Log KOCT:AQ [4]: 3.10; Log SOCT [5]: 4.65 μmole cm^−3

Question: For Cc1cc(O)cc(C)c1Cl [compound 2, 4-chloro-3,5-dimethylphenol], which “Exp. log JMPAQ” value [1, 8] is on record?
Answer: −0.027 μmole cm^−2 h^−1

Question: What about the “Log JMPAQ” value [1, 9] of the same molecule?
Answer: −0.027 μmole cm^−2 h^−1

Question: What about the “Exp. log JMHAQ” value [2] of the same molecule?
Answer: −0.95 μmole cm^−2 h^−1

Question: What about the “Log JMHAQ” value [2] of the same molecule?
Answer: −0.95 μmole cm^−2 h^−1

Question: And the “Log SAQ” value [3]?
Answer: 0.28 μmole cm^−3

Question: And the “Log KOCT:AQ” value [4]?
Answer: 3.39

Question: And the “Log SOCT” value [5]?
Answer: 3.67 μmole cm^−3

Question: For Cc1ccc(O)cc1 [compound 4, 4-methyl], which “Exp. log JMPAQ” value [1, 8] is on record?
Answer: 1.62 μmole cm^−2 h^−1

Question: And the “Log JMPAQ” value [1, 9]?
Answer: 1.62 μmole cm^−2 h^−1

Question: And the “Exp. log JMHAQ” value [2]?
Answer: 0.53 μmole cm^−2 h^−1

Question: And the “Log JMHAQ” value [2]?
Answer: 0.53 μmole cm^−2 h^−1

Question: What about the “Log SAQ” value [3] of the same molecule?
Answer: 2.29 μmole cm^−3

Question: And the “Log KOCT:AQ” value [4]?
Answer: 1.95

Question: What about the “Log SOCT” value [5] of the same molecule?
Answer: 4.24 μmole cm^−3

Question: Which “Exp. log JMPAQ” value ([1]; not told) does the source give for Oc1ccc(Cl)cc1Cl [compound 5, 2,4-dichloro] here?
Answer: 1.16 μmole cm^−2 h^−1

Question: What about the “Log JMPAQ” value ([1]; not told, pH 7.1) of the same molecule?
Answer: 1.16 μmole cm^−2 h^−1

Question: And the “Exp. log JMHAQ” value [2]?
Answer: 0.27 μmole cm^−2 h^−1

Question: What about the “Log JMHAQ” value [2] of the same molecule?
Answer: 0.27 μmole cm^−2 h^−1

Question: What about the “Log SAQ” value [3] of the same molecule?
Answer: 1.49 μmole cm^−3

Question: And the “Log KOCT:AQ” value [4]?
Answer: 3.08

Question: And the “Log SOCT” value [5]?
Answer: 4.57 μmole cm^−3

Question: For Cc1cccc(O)c1 [compound 7, 3-methylphenol], which “Exp. log JMPAQ” value [1, 8] is on record?
Answer: 1.61 μmole cm^−2 h^−1

Question: And the “Log JMPAQ” value [1, 9]?
Answer: 1.61 μmole cm^−2 h^−1

Question: And the “Exp. log JMHAQ” value [2]?
Answer: 0.54 μmole cm^−2 h^−1

Question: And the “Log JMHAQ” value [2]?
Answer: 0.54 μmole cm^−2 h^−1

Question: What about the “Log SAQ” value [3] of the same molecule?
Answer: 2.36 μmole cm^−3

Question: What about the “Log KOCT:AQ” value [4] of the same molecule?
Answer: 1.96

Question: And the “Log SOCT” value [5]?
Answer: 4.32 μmole cm^−3

Question: With Cn1c(=O)c2[nH]cnc2n(C)c1=O [theophylline] as the molecule, how does the “log JMPPG (log flux of theophylline through silicone from PG)” value [6] read?
Answer: within the standard deviation of the literature value

Question: What about the “log JMPPG (log flux of theophylline through silicone from PG), literature value” [7] of the same molecule?
Answer: −2.68 ± 0.12 log units

Source: paper PMC3836618, “The Flux of Phenolic Compounds through Silicone Membranes” (Pharmaceutics, 2013)
